The values below come from PubChem BioAssay AID652069 (The Scripps Research Institute Molecular Screening Center, 2013).

Calls of active or inactive are those of the source.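 How the source made its calls: active means growth ratio of SRC-3 knockout over parental cells of 1.2 or more, reached at 10 µM or lower; inactive means the rest.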

The assay has as its system HeLa SRC-3 KO vs WT growth ratio, MTT, 5 d. Kind of assay: SRC-3 dependent HeLa growth inhibition selectivity, late-stage follow-up, selectivity assay for SRC-1/SRC-3 inhibitor project, cell-based, zinc finger nuclease knockout, MTT (AID 652069). The conditions noted are these: at 10 µM (top of the series).
In the case of `Cc1ccc(N=c2c([N+](=O)[O-])nn(-c3ccc4c(c3)OCCO4)n2O)cc1F`, the KO/WT growth ratio, higher = selective was 1.02 (inactive).
Turning to `CCC(=O)N1CCN(c2ccnc3cc(Cl)ccc23)CC1`, the KO/WT growth ratio, higher = selective is 1.11 (inactive).
Then `O=C(CCl)N1N=C(c2ccco2)CC1c1ccco1` (stereo unspecified), with 1.42; and `NS(=O)(=O)c1ccc(Nc2nc(-c3cccnc3)cs2)cc1`, with 0.928 (inactive); and `Cc1c(Cl)cccc1N=c1c([N+](=O)[O-])nn(-c2ccc3c(c2)OCCO3)n1O`, with 1.03 (inactive).
For the compound `O=C(CCl)NC(Cc1ccccc1)c1ccccc1` (stereo unspecified), the KO/WT growth ratio, higher = selective is 1.07 (inactive).
Then `O=[N+]([O-])c1nn(-c2ccc3c(c2)OCCO3)n(O)c1=Nc1ccc(Cl)cc1`, with 0.995 (inactive); and `O=C(CCCc1nc(-c2ccccc2Cl)no1)NC1CCCC1`, with 1.06 (inactive).
The result for `O=[N+]([O-])c1nn(-c2ccc3c(c2)OCCO3)n(O)c1=Nc1ccccc1` reads 0.918 (inactive); that for `O=C(Nc1nc2ccccc2s1)C1c2ccccc2Oc2ccccc21`, 1.05 (inactive).
The result for `Cc1cc(/C=C2\Cc3ccccc3C2=O)c(C)n1-c1ccccc1` reads 1.01 (inactive); that for `CCc1ccc(N=c2c([N+](=O)[O-])nn(-c3ccc4c(c3)OCCO4)n2O)cc1`, 0.982 (inactive); that for `Cc1c(/C(O)=C2/C(=O)C(=O)N(Cc3cccnc3)C2c2ccccn2)cnn1-c1ccccc1` (stereo unspecified), 0.966 (inactive).
With `CC(C)N(c1ccccc1)c1ccc(NC(=O)CCl)cc1`, the KO/WT growth ratio, higher = selective was 1.07 (inactive).
Then `CCCCC(=O)Nc1cccn2ncnc12`, with 0.954 (inactive); and `Cc1ccc(N=c2c([N+](=O)[O-])nn(-c3ccc4c(c3)OCCO4)n2O)c(Cl)c1`, with 1.06 (inactive).
Then `Cc1cccc(NC(=O)c2cc(Cl)ccc2[N+](=O)[O-])c1`, with 1.09 (inactive); and `O=C1CCC2S/C(=C/Nc3ccc(C(F)(F)F)cc3)C(=O)N12` (stereo unspecified), with 1.02 (inactive); and `S=C(c1ccc(-c2ccccc2)cc1)N1CCOCC1`, with 0.918 (inactive).
Then `Cc1c(CC(=O)NCCCC(=O)O)c(=O)oc2cc3c(cc12)CCC(C)(C)O3`, with 1.04 (inactive); and `O=C(Nc1nc(-c2ccccn2)cs1)c1cccc(S(=O)(=O)N2CCOCC2)c1`, with 1.23.
Consider `CC(C)n1c(SCC(=O)Nc2nc3c(s2)CCCC3)nc2c1c(=O)n(C)c(=O)n2C`, for which the KO/WT growth ratio, higher = selective is 1.03 (inactive).
Turning to `COc1cc(N=c2c([N+](=O)[O-])nn(-c3ccc4c(c3)OCCO4)n2O)cc(OC)c1`, the KO/WT growth ratio, higher = selective was 1.09 (inactive).
`COc1cc2c(cc1OC)C(NC(=O)C(F)(F)F)CNC2=O` (stereo unspecified): the KO/WT growth ratio, higher = selective is 1.47.
Then `CC(=O)/C(N=Nc1ccc2c(c1)OCCO2)=C(/C)O`, with 1.02 (inactive); and `Cc1ccc(/C=C2\SC(=S)N(CCCC(=O)NC3CCCC3)C2=O)cc1`, with 0.962 (inactive).
The result for `O=C(Nc1cccnc1)c1ccc(C(=O)Nc2cccnc2)cc1` reads 1.07 (inactive); that for `Cc1ccc(OCC(=O)c2cc(C)n(-c3ccccc3)c2C)c([N+](=O)[O-])n1`, 0.934 (inactive); that for `Cc1ccc(OCC(=O)c2cc(C)n(Cc3cccs3)c2C)c([N+](=O)[O-])n1`, 0.969 (inactive).
The result for `Cc1cc(N=c2c([N+](=O)[O-])nn(-c3ccc4c(c3)OCCO4)n2O)ccc1Br` reads 0.974 (inactive); that for `CCOC(=O)C(=CNc1ccc(NC2=NCC(C)S2)cc1)C(=O)OCC` (stereo unspecified), 1 (inactive).
On to `O=C(NC(NC(=S)N1CCOCC1)C(Cl)(Cl)Cl)c1ccc(Cl)cc1` (stereo unspecified), for which the KO/WT growth ratio, higher = selective was 1.05 (inactive).
The result for `CCc1ccc(/C=C2\SC(=S)N(CCCC(=O)NCCCN3CCOCC3)C2=O)cc1` reads 0.974 (inactive); that for `CN(C)c1ccc(CNC(=O)CCNS(=O)(=O)c2cc(Br)cnc2N)cc1`, 1.04 (inactive).
Then `Cc1ccc(/C=C2/SC(=S)N(CCCC(=O)Nc3ccc(O)cc3)C2=O)cc1`, with 1.11 (inactive); and `COc1ccc(/C=C2/SC(=S)N(CCC(=O)O)C2=O)cc1`, with 1.07 (inactive); and `O=[N+]([O-])c1cccc2c1ccc1ncccc12`, with 1.09 (inactive).
The result for `NC(=S)NN=C1CCSc2ccc(Cl)cc21` reads 1.09 (inactive); that for `COc1cc(C2c3cc4c(cc3C(OC3OC5COC(c6cccs6)OC5C(O)C3O)C3COC(=O)C23)OCO4)cc(OC)c1O` (stereo unspecified), 1.2.
Turning to `COC(=O)c1c(C)n(-c2ccc(OC)cc2)c2ccc(O)cc12`, the KO/WT growth ratio, higher = selective was 1.01 (inactive).
The result for `NC(=O)c1sc2nc3c(c(-c4ccco4)c2c1N)CCC3` reads 1.23.
In the case of `CC(=O)N1CCN(c2ncnc3ccccc23)CC1`, the KO/WT growth ratio, higher = selective is 0.988 (inactive).
Then `O=C(CCl)N1N=C(c2ccco2)CC1c1cccs1` (stereo unspecified), with 2.05; and `Cn1nc(C(F)(F)F)c(C#N)c1N1CCN(c2ccc(F)cc2)CC1`, with 0.976 (inactive).
Consider `Cc1cc(C)cc(N=c2c([N+](=O)[O-])nn(-c3ccc4c(c3)OCCO4)n2O)c1`, for which the KO/WT growth ratio, higher = selective is 0.985 (inactive).
Then `O=C(O)CN1C(=O)/C(=C\c2ccccc2OCc2ccc(Cl)cc2Cl)SC1=S`, with 1.02 (inactive).
Then `S=C(Nc1ccccc1)Nc1ccc(OCc2ccc(Cl)cc2Cl)cc1`, with 1.05 (inactive).
The result for `c1ccc(-c2nnc(-c3ccccn3)nc2NC2CCCCC2)cc1` reads 1.01 (inactive); that for `O=C(COC(=O)c1ccc[nH]c1=O)Nc1ccc(N2CCCCC2)cc1`, 0.954 (inactive).
On to `CCOc1ccc(/C=C2\SC(=S)N(CCCC(=O)NCCCN3CCOCC3)C2=O)cc1`, for which the KO/WT growth ratio, higher = selective was 1.03 (inactive).
Consider `Cc1nn(CC(=O)N2CCN(c3cccc(C(F)(F)F)c3)CC2)c(=O)c2cccn12`, for which the KO/WT growth ratio, higher = selective was 1.09 (inactive).
